Reference: patent publication US10287228B2, “Antimalarial agent, methods and uses thereof” (UNIVERSIDADE DO PORTO, priority 2015, dated 2019)
Read-outs that look alike come from different tables or passages of the source.

Key:
[1] = system: HT-29 colon adenocarcinoma human cells; conditions: cited from earlier work
[2] = system: P. falciparum multidrug-resistant Dd2 strain; assay: microbe, parasite or virus in culture; format: cell-based, Plasmodium falciparum
Protocol: (§1) In an embodiment, hierridin B and hierridin C were tested for in vitro activity towards the P. falciparum strains, in particular P. falciparum 3D7 strain and the multidrug-resistant Dd2 strain to verify whether the chlorine atom featured in hierridin C affects the activity of the compound, in particular the antimalarial activity.
(§2) In an embodiment, the laboratory-adapted P. falciparum 3D7 and Dd2 strains were cultivated on human erythrocytes suspended in RPMI 1640 medium supplemented with 25 mM HEPES, 6.8 mM hypoxanthine and 10% AlbuMAX II (Life Technologies, Carlsbad, Calif., USA), at pH 7.2. Cultures were maintained at 37° C. under an atmosphere of 5% O2, 3-5% CO2 and N2, and synchronized by sorbitol treatment prior to the assays. Staging and parasitaemia were determined by light microscopy of Giemsa-stained thin blood smears.
(§3) In an embodiment, the antimalarial activities of hierridin B and hierridin C were determined using the SYBR Green I (Life Technologies). Early ring stage parasites were tested in triplicate in a 96-well plate and incubated with drugs for 48 h (37° C., 5% CO2), parasite growth was assessed with SYBR Green I. Each compound was tested in a concentration ranging from 10-0.0097 μM (0.2% DMSO). Fluorescence intensity was measured with a multi-mode microplate reader (Triad, Dynex, Chantilly, Va., USA) with excitation and emission wavelengths of 485 nm and 535 nm, respectively, and analyzed by nonlinear regression using GraphPad Prism 5 (GraphPad Software, La Jolla, Calif., USA).

P. falciparum 3D7 strain = assay: SYBR Green I antimalarial activity, P. falciparum 3D7; format: cell-based, Plasmodium falciparum; conditions: read-out: IC50 P. faldparum 3D7
Protocol: as §1
as §2, with “Cultures were maintained at 37° C. under an atmosphere of 5% O2, 3-5% CO2 and N2, and synchronized by sorbitol treatment prior to the assays.” left out
as §3

[3] = system: colon adenocarcinoma HT-29; assay: Cytotoxicity, cell lines exposed to hierridin C; format: cell-based, human; conditions: HT-29, up to 30 μg mL−1 (75.2 μM)
Protocol: (§4) In an embodiment, several cell lines were exposed to hierridin C, in particular to a concentration of hierridin C up to 30 μg mL^−1 (75.2 μM). The cell lines exposed to hierridin C, were in particular the cell lines of hepatocellular carcinoma HepG2, colon adenocarcinoma HT-29, neuroblastoma SH-SY5Y, breast carcinoma T47D, normal prostate cell line PNT2, breast adenocarcinoma, RKO colon carcinoma and MG-63 osteosarcoma.

MG-63 osteosarcoma = assay: Cytotoxicity, cell lines exposed to hierridin C; format: cell-based; conditions: MG-63, up to 30 μg mL−1 (75.2 μM)
Protocol: as §4

RKO colon carcinoma = assay: Cytotoxicity, cell lines exposed to hierridin C; format: cell-based; conditions: up to 30 μg mL−1 (75.2 μM)
Protocol: as §4

neuroblastoma SH-SY5Y = assay: Cytotoxicity, cell lines exposed to hierridin C; format: cell-based; conditions: up to 30 μg mL−1 (75.2 μM)
Protocol: as §4

breast adenocarcinoma = assay: Cytotoxicity, cell lines exposed to hierridin C; format: cell-based; conditions: up to 30 μg mL−1 (75.2 μM)
Protocol: as §4

breast carcinoma T47D = assay: Cytotoxicity, cell lines exposed to hierridin C; format: cell-based; conditions: up to 30 μg mL−1 (75.2 μM)
Protocol: as §4

[4] = system: normal prostate cell line PNT2; assay: Cytotoxicity, cell lines exposed to hierridin C; format: cell-based; conditions: PNT2, up to 30 μg mL−1 (75.2 μM)
Protocol: as §4

[5] = system: hepatocellular carcinoma HepG2; assay: Cytotoxicity, cell lines exposed to hierridin C; format: cell-based; conditions: HepG2, up to 30 μg mL−1 (75.2 μM)
Protocol: as §4

| SMILES | cytotoxicity towards HT-29 [1] | IC50 ([2]; Dd2 strain (resistant to chloroquine and mefloquine), 48 h incubation, SYBR Green I, read-out: IC50 P. faldparum Dd2) [nM] | IC50 (P. falciparum 3D7 strain; 3D7 strain (sensitive to chloroquine), 48 h incubation, SYBR Green I) [nM] | Resistance indices (RI) ([2]; Dd2 versus 3D7) | IC50 ([2]; Plasmodium falciparum, DD2, 48 h, read-out: IC50 P. faldparum Dd2) [nM] | IC50 ([2]; Plasmodium falciparum, DD2, read-out: IC50 in P. falciparum strains) [nM] | therapeutical index ([2]; relative to IC50 in P. falciparum strains) | IC50 (P. falciparum 3D7 strain; Plasmodium falciparum, 3D7, 48 h) [nM] | cytotoxicity [3] | cytotoxicity (MG-63 osteosarcoma) | cytotoxicity (RKO colon carcinoma) | cytotoxicity (neuroblastoma SH-SY5Y) | cytotoxicity (breast adenocarcinoma) | cytotoxicity (breast carcinoma T47D) | cytotoxicity [4] | cytotoxicity [5] |
| --- | --- | --- | --- | --- | --- | --- | --- | --- | --- | --- | --- | --- | --- | --- | --- | --- |
| CCCCCCCCCCCCCCCc1cc(OC)cc(OC)c1O [Hierridin B, reference compound] | modest, selective cytotoxicity | 2250 ± 670 | 2090 ± 80 | – | – | – | – | – | – | – | – | – | – | – | – | – |
| CCCCCCCCCCCCCCCc1c(O)c(OC)cc(OC)c1Cl [Hierridin C, 3-chloro-4,6-dimethoxy-2-pentadecylphenol] | – | – | – | 0.93 | 2310 ± 110 | ~2000 | >= 50 | 1520 ± 50 | No cytotoxicity was observed | No cytotoxicity was observed | No cytotoxicity was observed | No cytotoxicity was observed | No cytotoxicity was observed | No cytotoxicity was observed | No cytotoxicity was observed | No cytotoxicity was observed |
